Values quoted from earlier work, collected in paper PMC6241861 (International Journal of Nanomedicine, 2018).

Key:
[1] = target: Pseudomonas aeruginosa elastase (Pseudomonas aeruginosa, UniProt P14756)
[2] = target: T1, human neutrophil elastase (Homo sapiens, UniProt P08246)
T1 sequence (P08246 30-267): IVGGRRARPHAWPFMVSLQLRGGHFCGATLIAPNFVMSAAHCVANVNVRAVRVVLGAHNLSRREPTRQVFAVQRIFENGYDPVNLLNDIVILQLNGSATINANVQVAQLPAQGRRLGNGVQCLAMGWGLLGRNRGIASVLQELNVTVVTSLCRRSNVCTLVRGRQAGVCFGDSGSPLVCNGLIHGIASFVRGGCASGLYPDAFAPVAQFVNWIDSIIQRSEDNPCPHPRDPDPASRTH

Pseudomonas aeruginosa elastase, sequence (P14756 198-498): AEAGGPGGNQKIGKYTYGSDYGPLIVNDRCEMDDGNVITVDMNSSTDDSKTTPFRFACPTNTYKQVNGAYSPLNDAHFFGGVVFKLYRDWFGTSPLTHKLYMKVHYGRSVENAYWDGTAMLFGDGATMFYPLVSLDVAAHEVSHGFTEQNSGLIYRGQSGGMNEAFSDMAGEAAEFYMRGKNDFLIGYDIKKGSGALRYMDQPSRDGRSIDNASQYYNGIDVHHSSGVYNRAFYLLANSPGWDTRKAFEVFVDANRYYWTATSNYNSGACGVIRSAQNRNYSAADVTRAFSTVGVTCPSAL

LL37
Degradation by P. aeruginosa elastase [PE] [1]: degraded
Degradation by leukocyte elastase [HNE] [2]: degraded
